Data reported in patent publication US12312333B2, “SK channel positive allosteric modulators” (Chapman University, priority 2021, dated 2025).

Molecular target: T1, human KCa2.3 channels (Homo sapiens, UniProt P0DP23+Q9UGI6)
T1 construct: expressed in transfected cells; host or cells: HEK293
Assay: Inside-out patch-clamp potentiation of KCa2.3 channels expressed in HEK293 cells
Type: cell-based
Conditions: for EC50: inside-out patch, HEK293, 0.15 μM Ca2+, read-out: EC50 on potentiating KCa2.3 channels
Excerpt: The effects of the two newly synthesized compounds on human KCa2.3 channels (FIG. 7A) were examined.
The effect of newly synthesized compounds on the KCa2.x/KCa3.1 channels was investigated as previously described (Nam, Y. W.; et al, Acta Physiol (Oxf) 2020, e13552; Nam, Y. W.; et al. Scientific reports 2018, 8 (1), 10749). Briefly, the rat KCa2.2a, human KCa2.1, human KCa2.3 or human KCa3.1 channels cDNA constructs were either generated in-house or through molecular cloning services (Genscript). The channel cDNAs, along with CaM and GFP, at a ratio of 7:4:2 (ORF ratios), were transfected into HEK293 cells by the calcium-phosphate method. KCa currents were recorded 1-2 days after transfection, with an Axon200B amplifier (Molecular Devices) at room temperature. The resistance of the patch electrodes ranged from 3-5 MΩ. The pipette solution contained (in mM): 140 KCl, 10 Hepes (pH 7.4), 1 MgSO4. The bath solution containing (in mM): 140 KCl, 10 Hepes (pH 7.2), 1 EGTA, 0.1 Dibromo-BAPTA, and 1 HEDTA was mixed with Ca^2+ to obtain the desired free Ca^2+ concentrations, calculated using the software by Chris Patton of Stanford University (https://somapp.ucdmc.ucdavis.edu/pharmacology/bers/maxchelator/webmaxc/webmaxcS.htm). […] Briefly, a standard curve was generated using the Ca^2+ buffers from the kit and a fluorescence Ca^2+ indicator. Then, the Ca^2+ concentrations of the bath solution were determined through interpolation on the standard curve.
High resistance seals (>1 GΩ) were formed before inside-out patches were obtained. […] Currents were recorded by repetitive 1-s-voltage ramps from −100 mV to +100 mV from a holding potential of 0 mV. […]
To measure the effect of CyPPA (Alomone Labs) and newly synthesized compounds, the intracellular face was exposed to bath solutions with 0.15 μM Ca^2+. One minute after switching of bath solutions, ten sweeps with a 1-s interval were recorded at a series of concentrations of compound in the presence of 0.15 μM Ca^2+. The maximal KCa2.x/KCa3.1 current in response to 10 μM Ca^2+ was then recorded. […]

Compound: Cc1cc(Nc2ccc(F)c(Cl)c2)nc(-n2nc(C)cc2C)n1 [Compound 2o, N-(3-Chloro-4-fluorophenyl)-2-(3,5-dimethyl-1H-pyrazol-1-yl)-6-methyl-pyrimidin-4-amine]
- potency on KCa2.3 compared to KCa2.2a channels: significantly smaller
- EC50: 190 ± 23 nM

Compound: Cc1cc(Nc2cc(Cl)ccc2F)nc(-n2nc(C)cc2C)n1 [Compound 2q, N-(5-Chloro-2-fluorophenyl)-2-(3,5-dimethyl-1H-pyrazol-1-yl)-6-methylpyrimidin-4-amine]
- EC50: 600 ± 35 nM
